Literature values as cited in publication PMC9729727, “The effect of food on the pharmacokinetics of WXFL10203614, a potential selective JAK1 inhibitor, in healthy Chinese subjects” (Frontiers in Pharmacology, 2022).
Like-named read-outs stand apart in the source and are kept apart here.

Conditions: for Effect of food on AUC / Effect of food on Cmax: ref Shi et al., 2011, Mohamed et al., Anderson et al.; for Effect of the fed state on Cmax: ref Lamba et al., 2016, Shibata et al., 2021
[1] = 3 mg immediate-release capsules, high-fat meal vs fasted, ref Mohamed et al., 2017

## N#CC[C@H](C1CCCC1)n1cc(-c2ncnc3[nH]ccc23)cn1 [INCB018424]
2017, 2019
  Effect of food on AUC: little effect
  Effect of food on Cmax: partly reduced

## O=C(Nc1nc2cccc(-c3ccc(CN4CCS(=O)(=O)CC4)cc3)n2n1)C1CC1 [filgotinib]
high- and low-fat meals, ref Anderson et al., 2019
  Effect of meals on systemic exposure: little effect
high-fat meal, ref Anderson et al., 2019
  Decrease of Cmax by meal: 20%
low-fat meal, ref Anderson et al., 2019
  Decrease of Cmax by meal: 11%
2017, 2019
  Effect of food on AUC: little effect
  Effect of food on Cmax: partly reduced

## NC(=O)c1cnc2[nH]ccc2c1N[C@@H]1[C@@H]2CC3C[C@H]1C[C@@](O)(C3)C2 [peficitinib]
  Effect of the fed state on Cmax: elevated

## C[C@@H]1CCN(C(=O)CC#N)C[C@@H]1N(C)c1ncnc2[nH]ccc12 [tofacitinib]
  Effect of the fed state on Cmax: elevated

## CC[C@@H]1CN(C(=O)NCC(F)(F)F)C[C@@H]1c1cnc2cnc3[nH]ccc3n12 [upadacitinib]
[1]
  Decrease of Cmax after a high-fat meal: 23%
  Effect of a high-fat meal on AUC: not impacted
2017, 2019
  Effect of food on AUC: little effect
  Effect of food on Cmax: partly reduced
